Laboratory results reported in ChEMBL document CHEMBL5356980, “Linker optimization and activity validation of a cell surface vimentin targeted homo-dimeric peptoid antagonist for lung cancer stem cells” (Bioorg Med Chem, 2024).

tested on: NCI-H1299; assay: Antiproliferative activity against human NCI-H1299 cells assessed as reduction in cell viability incubated for 4 days by MTS assay; format: functional, cell-based; details: NCI-H1299, 96 h

IC50 [µM]	Structure (SMILES)
6	COCCN(CC(=O)N[C@H](CCCCN)C(=O)N[C@H](CCSC)C(=O)NCC(=O)NCCCCC(NC(=O)CNC(=O)[C@@H](CCSC)NC(=O)[C@@H](CCCCN)NC(=O)CN(CCOC)C(=O)CN(Cc1ccc2c(c1)OCO2)C(=O)CN(CC(C)C)C(=O)CN(CCCCN)C(=O)CN(CCCCN)C(=O)CN(CC(C)C)C(=O)CNc1ccc(C(=O)c2ccccc2)cc1)C(N)=O)C(=O)CN(Cc1ccc2c(c1)OCO2)C(=O)CN(CC(C)C)C(=O)CN(CCCCN)C(=O)CN(CCCCN)C(=O)CN(CC(C)C)C(=O)CNc1ccc(C(=O)c2ccccc2)cc1 (some centres not stated)

same assay, conditions: dose 1000-100000 nM, time 4.0 day

Structure (SMILES)	Activity
COCCN(CC(=O)N[C@H](CCCCN)C(=O)N[C@H](CCSC)C(=O)NCCOCCOCC(=O)NCCOCCOCC(=O)NCCCCC(NC(=O)COCCOCCNC(=O)COCCOCCNC(=O)[C@@H](CCSC)NC(=O)[C@@H](CCCCN)NC(=O)CN(CCOC)C(=O)CN(Cc1ccc2c(c1)OCO2)C(=O)CN(CC(C)C)C(=O)CN(CCCCN)C(=O)CN(CCCCN)C(=O)CN(CC(C)C)C(=O)CNc1ccc(C(=O)c2ccccc2)cc1)C(N)=O)C(=O)CN(Cc1ccc2c(c1)OCO2)C(=O)CN(CC(C)C)C(=O)CN(CCCCN)C(=O)CN(CCCCN)C(=O)CN(CC(C)C)C(=O)CNc1ccc(C(=O)c2ccccc2)cc1 (some centres not stated)	Dose-Dependent Effect
COCCN(CC(=O)N[C@H](CCCCN)C(=O)N[C@H](CCSC)C(=O)NCCCCC(NC(=O)CNC(=O)[C@@H](CCSC)NC(=O)[C@@H](CCCCN)NC(=O)CN(CCOC)C(=O)CN(Cc1ccc2c(c1)OCO2)C(=O)CN(CC(C)C)C(=O)CN(CCCCN)C(=O)CN(CCCCN)C(=O)CN(CC(C)C)C(=O)CNc1ccc(C(=O)c2ccccc2)cc1)C(N)=O)C(=O)CN(Cc1ccc2c(c1)OCO2)C(=O)CN(CC(C)C)C(=O)CN(CCCCN)C(=O)CN(CCCCN)C(=O)CN(CC(C)C)C(=O)CNc1ccc(C(=O)c2ccccc2)cc1 (some centres not stated)	Dose-Dependent Effect
COCCN(CC(=O)N[C@H](CCCCN)C(=O)N[C@H](CCSC)C(=O)NCC(=O)NCCCCC(NC(=O)COCCOCCNC(=O)CNC(=O)[C@@H](CCSC)NC(=O)[C@@H](CCCCN)NC(=O)CN(CCOC)C(=O)CN(Cc1ccc2c(c1)OCO2)C(=O)CN(CC(C)C)C(=O)CN(CCCCN)C(=O)CN(CCCCN)C(=O)CN(CC(C)C)C(=O)CNc1ccc(C(=O)c2ccccc2)cc1)C(N)=O)C(=O)CN(Cc1ccc2c(c1)OCO2)C(=O)CN(CC(C)C)C(=O)CN(CCCCN)C(=O)CN(CCCCN)C(=O)CN(CC(C)C)C(=O)CNc1ccc(C(=O)c2ccccc2)cc1 (some centres not stated)	Dose-Dependent Effect
COCCN(CC(=O)N[C@H](CCCCN)C(=O)N[C@H](CCSC)C(=O)NCC(=O)NCCCCC(NC(=O)CNC(=O)CNC(=O)[C@@H](CCSC)NC(=O)[C@@H](CCCCN)NC(=O)CN(CCOC)C(=O)CN(Cc1ccc2c(c1)OCO2)C(=O)CN(CC(C)C)C(=O)CN(CCCCN)C(=O)CN(CCCCN)C(=O)CN(CC(C)C)C(=O)CNc1ccc(C(=O)c2ccccc2)cc1)C(N)=O)C(=O)CN(Cc1ccc2c(c1)OCO2)C(=O)CN(CC(C)C)C(=O)CN(CCCCN)C(=O)CN(CCCCN)C(=O)CN(CC(C)C)C(=O)CNc1ccc(C(=O)c2ccccc2)cc1 (some centres not stated)	Dose-Dependent Effect
COCCN(CC(=O)N[C@H](CCCCN)C(=O)N[C@H](CCSC)C(=O)NCC(=O)NCC(=O)NCCCCC(NC(=O)CNC(=O)CNC(=O)[C@@H](CCSC)NC(=O)[C@@H](CCCCN)NC(=O)CN(CCOC)C(=O)CN(Cc1ccc2c(c1)OCO2)C(=O)CN(CC(C)C)C(=O)CN(CCCCN)C(=O)CN(CCCCN)C(=O)CN(CC(C)C)C(=O)CNc1ccc(C(=O)c2ccccc2)cc1)C(N)=O)C(=O)CN(Cc1ccc2c(c1)OCO2)C(=O)CN(CC(C)C)C(=O)CN(CCCCN)C(=O)CN(CCCCN)C(=O)CN(CC(C)C)C(=O)CNc1ccc(C(=O)c2ccccc2)cc1 (some centres not stated)	Dose-Dependent Effect
COCCN(CC(=O)N[C@H](CCCCN)C(=O)N[C@H](CCSC)C(=O)NCC(=O)NCCCCC(NC(=O)CNC(=O)[C@@H](CCSC)NC(=O)[C@@H](CCCCN)NC(=O)CN(CCOC)C(=O)CN(Cc1ccc2c(c1)OCO2)C(=O)CN(CC(C)C)C(=O)CN(CCCCN)C(=O)CN(CCCCN)C(=O)CN(CC(C)C)C(=O)CNc1ccc(C(=O)c2ccccc2)cc1)C(N)=O)C(=O)CN(Cc1ccc2c(c1)OCO2)C(=O)CN(CC(C)C)C(=O)CN(CCCCN)C(=O)CN(CCCCN)C(=O)CN(CC(C)C)C(=O)CNc1ccc(C(=O)c2ccccc2)cc1 (some centres not stated)	Dose-Dependent Effect
